Tests used:
[1] = molecular target: BRD4 (BDI_K57-E168) (Homo sapiens (Human), UniProt O60885); experiment: TR-FRET bromodomain binding assay, BRD4 first bromodomain; details: His-tagged BD1, Alexa647-labeled probe 100 nM
Method: (§1) A time-resolved fluorescence resonance energy transfer (TR-FRET) assay was used to determine the affinities of compounds of the Examples listed in Table 1 for each bromodomain of BRD4. His-tagged first (BD1: amino acids K57-E168) and second (BD2: amino acids E352-E168) bromodomains of BRD4 were expressed and purified. An Alexa647-labeled BET-inhibitor was used as the fluorescent probe in the assay.
(§2) Compound dilution series were prepared in DMSO via a 3-fold serial dilution from 2.5 mM to 42 nM. Compounds were then diluted 6:100 in assay buffer (20 mM Sodium Phosphate, pH 6.0, 50 mM NaCl, 1 mM Ethylenediaminetetraacetic acid disodium salt dihydrate, 0.01% Triton X-100, 1 mM DL-Dithiothreitol) to yield 3× working solutions. Six microliters (μL) of the working solution was then transferred to white, low-volume assay plates (Costar #3673). A 1.5× assay mixture containing His-tagged bromodomain, Europium-conjugated anti-His antibody (Invitrogen PV5596) and the Alexa-647-conjugated probe molecule was also prepared. Twelve μL of this solution were added to the assay plate to reach a final volume of 18 μL. The final concentration of 1× assay buffer contains 2% DMSO, 50 μM-0.85 nM compound, 8 nM His-tagged bromodomain, 1 nM Europium-conjugated anti-His-tag antibody and 100 nM or 30 nM probe (for BDI or BDII, respectively). After a one-hour incubation at room temperature, TR-FRET ratios were determined using an Envision multilabel plate reader (Ex 340, Em […]).
(§3) TR-FRET data were normalized to the means of 24 no-compound controls (“high”) and 8 controls containing 1 μM un-labeled probe (“low”). Percent inhibition was plotted as a function of compound concentration and the data were fit with the 4 parameter logistic equation to obtain IC50s. Inhibition constants (Ki) were calculated from the IC50s, probe Kd and probe concentration. Typical Z′ values were between 0.65 and 0.75. The minimum significant ratio was determined to evaluate assay reproducibility (Eastwood et al., (2006) J Biomol Screen, 11: 253-261). The MSR was determined to be 2.03 for BDI and 1.93 for BDII, and a moving MSR (last six run MSR overtime) for both BDI and BDII was typically <3.

[2] = molecular target: BRD4 (BDII_E352-M457) (Homo sapiens (Human), UniProt O60885); experiment: TR-FRET bromodomain binding assay, BRD4 second bromodomain; details: His-tagged BD2, Alexa647-labeled probe 30 nM
Method: as §1, §2, §3

SMILES	Ki [1] [nM]	Ki [2] [nM]
Cc1nnc(C)n1C1CCN(Cc2cc3c(-c4cc(S(C)(=O)=O)ccc4Oc4ccc(F)cc4F)cn(C)c(=O)c3[nH]2)CC1 [Example 128, 4-[2-(2,4-difluorophenoxy)-5-(methylsulfonyl)phenyl]-2-{[4-(3,5-dimethyl-4H-1,2,4-triazol-4-yl)piperidin-1-yl]methyl}-6-methyl-1,6-dihydro-7H-pyrrolo[2,3-c]pyridin-7-one]	47.8	182
CCS(=O)(=O)c1ccc(OCC2CC2(F)F)c(-c2cn(C)c(=O)c3[nH]c(CN4CCN(c5cccnc5)CC4)cc23)c1 (centres unmarked) [Example 20, 4-{2-[(2,2-difluorocyclopropyl)methoxy]-5-(ethylsulfonyl)phenyl}-6-methyl-2-{[4-(pyridin-3-yl)piperazin-1-yl]methyl}-1,6-dihydro-7H-pyrrolo[2,3-c]pyridin-7-one]	4.9	48
COc1ccc(CCC(=O)N2CCC(Nc3ccc(S(C)(=O)=O)cc3-c3cn(C)c(=O)c4[nH]ccc34)CC2)c(OC)c1OC [Example 92, 6-methyl-4-[5-(methylsulfonyl)-2-({1-[3-(2,3,4-trimethoxyphenyl)propanoyl]piperidin-4-yl}amino)phenyl]-1,6-dihydro-7H-pyrrolo[2,3-c]pyridin-7-one]	15	33
Cn1cc(-c2cc(S(C)(=O)=O)ccc2NC2CCN(C(=O)CN3CCCC3)CC2)c2cc[nH]c2c1=O [Example 97, 6-methyl-4-[5-(methylsulfonyl)-2-{[1-(pyrrolidin-1-ylacetyl)piperidin-4-yl]amino}phenyl]-1,6-dihydro-7H-pyrrolo[2,3-c]pyridin-7-one]	10	28
CCNC(=O)c1cc2c(-c3cc(S(=O)(=O)CC)ccc3Oc3c(C)cccc3CN3CCOCC3)cn(C)c(=O)c2[nH]1 [Example 146, N-ethyl-4-{5-(ethylsulfonyl)-2-[2-methyl-6-(morpholin-4-ylmethyl)phenoxy]phenyl}-6-methyl-7-oxo-6,7-dihydro-1H-pyrrolo[2,3-c]pyridine-2-carboxamide]	3280	50.1
CCS(=O)(=O)c1ccc(OCC2CC2(F)F)c(-c2cn(C)c(=O)c3[nH]c(CN4CCN(c5ccncc5)CC4)cc23)c1 (centres unmarked) [Example 16, 4-{2-[(2,2-difluorocyclopropyl)methoxy]-5-(ethylsulfonyl)phenyl}-6-methyl-2-{[4-(pyridin-4-yl)piperazin-1-yl]methyl}-1,6-dihydro-7H-pyrrolo[2,3-c]pyridin-7-one]	2.5	30
Cc1cccc(C)c1Oc1ccc(S(C)(=O)=O)cc1-c1cn(C)c(=O)c2[nH]c(-c3nc(-c4cccnc4)no3)cc12 [Example 138, 4-[2-(2,6-dimethylphenoxy)-5-(methylsulfonyl)phenyl]-6-methyl-2-[3-(pyridin-3-yl)-1,2,4-oxadiazol-5-yl]-1,6-dihydro-7H-pyrrolo[2,3-c]pyridin-7-one]	88.5	7.38
Cn1cc(-c2cc(S(C)(=O)=O)ccc2NC2CCN(S(=O)(=O)c3cccs3)CC2)c2cc[nH]c2c1=O [Example 106, 6-methyl-4-[5-(methylsulfonyl)-2-{[1-(thiophen-2-ylsulfonyl)piperidin-4-yl]amino}phenyl]-1,6-dihydro-7H-pyrrolo[2,3-c]pyridin-7-one]	7.9	6.5
Cn1cc(-c2cc(S(C)(=O)=O)ccc2NC2CCN(Cc3cccs3)CC2)c2cc[nH]c2c1=O [Example 89, 6-methyl-4-[5-(methylsulfonyl)-2-{[1-(thiophen-2-ylmethyl)piperidin-4-yl]amino}phenyl]-1,6-dihydro-7H-pyrrolo[2,3-c]pyridin-7-one]	22	44

Continued, values first:

Ki [1] [nM]	Ki [2] [nM]	SMILES
11	2.8	Cn1cc(-c2cc(S(C)(=O)=O)ccc2Oc2cccc(NCC3CCOC3)c2)c2cc[nH]c2c1=O (centres unmarked) [Example 77, 6-methyl-4-[5-(methylsulfonyl)-2-{3-[(tetrahydrofuran-3-ylmethyl)amino]phenoxy}phenyl]-1,6-dihydro-7H-pyrrolo[2,3-c]pyridin-7-one]
5.9	2.7	Cn1cc(-c2cc(S(C)(=O)=O)ccc2Oc2cccc(NS(=O)(=O)c3ccc(F)cc3F)c2)c2cc[nH]c2c1=O [Example 47, 2,4-difluoro-N-{3-[2-(6-methyl-7-oxo-6,7-dihydro-1H-pyrrolo[2,3-c]pyridin-4-yl)-4-(methylsulfonyl)phenoxy]phenyl}benzenesulfonamide]
27	15	Cn1cc(-c2cc(S(C)(=O)=O)ccc2Oc2cccc(C(=O)N3CCN(CCO)CC3)c2)c2cc[nH]c2c1=O [Example 26, 4-[2-(3-{[4-(2-hydroxyethyl)piperazin-1-yl]carbonyl}phenoxy)-5-(methylsulfonyl)phenyl]-6-methyl-1,6-dihydro-7H-pyrrolo[2,3-c]pyridin-7-one]
28	17	CC(=O)N1CCN(C(=O)c2cccc(Oc3ccc(S(C)(=O)=O)cc3-c3cn(C)c(=O)c4[nH]ccc34)c2)CC1 [Example 30, 4-[2-{3-[(4-acetylpiperazin-1-yl)carbonyl]phenoxy}-5-(methylsulfonyl)phenyl]-6-methyl-1,6-dihydro-7H-pyrrolo[2,3-c]pyridin-7-one]
21	10	CN(CC#N)C(=O)c1cccc(Oc2ccc(S(C)(=O)=O)cc2-c2cn(C)c(=O)c3[nH]ccc23)c1 [Example 32, N-(cyanomethyl)-N-methyl-3-[2-(6-methyl-7-oxo-6,7-dihydro-1H-pyrrolo[2,3-c]pyridin-4-yl)-4-(methylsulfonyl)phenoxy]benzamide]
1.5	1.8	CCS(=O)(=O)Nc1cc(-c2cn(C)c(=O)c3[nH]ccc23)c(Oc2ccc(F)cc2F)cc1C(N)=O [Example 8, 5-(2,4-difluorophenoxy)-2-[(ethylsulfonyl)amino]-4-(6-methyl-7-oxo-6,7-dihydro-1H-pyrrolo[2,3-c]pyridin-4-yl)benzamide]
21	11	Cn1cc(-c2cc(S(C)(=O)=O)ccc2Oc2cccc(C(=O)N3CCC(C(F)(F)F)CC3)c2)c2cc[nH]c2c1=O [Example 31, 6-methyl-4-[5-(methylsulfonyl)-2-(3-{[4-(trifluoromethyl)piperidin-1-yl]carbonyl}phenoxy)phenyl]-1,6-dihydro-7H-pyrrolo[2,3-c]pyridin-7-one]
42	7.4	CCS(=O)(=O)Nc1cc(-c2cn(C)c(=O)c3[nH]ccc23)c(Oc2ccc(F)cc2F)cc1CNCCO [Example 13, N-[4-(2,4-difluorophenoxy)-2-{[(2-hydroxyethyl)amino]methyl}-5-(6-methyl-7-oxo-6,7-dihydro-1H-pyrrolo[2,3-c]pyridin-4-yl)phenyl]ethanesulfonamide]
4.7	8.9	Cn1cc(-c2cc(S(C)(=O)=O)ccc2NC2CCN(S(=O)(=O)c3ccccc3)CC2)c2cc[nH]c2c1=O [Example 84, 6-methyl-4-[5-(methylsulfonyl)-2-{[1-(phenylsulfonyl)piperidin-4-yl]amino}phenyl]-1,6-dihydro-7H-pyrrolo[2,3-c]pyridin-7-one]
7.8	2.4	Cn1cc(-c2cc(S(C)(=O)=O)ccc2Oc2cccc(NS(=O)(=O)c3cccc(OC(F)F)c3)c2)c2cc[nH]c2c1=O [Example 48, 3-(difluoromethoxy)-N-{3-[2-(6-methyl-7-oxo-6,7-dihydro-1H-pyrrolo[2,3-c]pyridin-4-yl)-4-(methylsulfonyl)phenoxy]phenyl}benzenesulfonamide]
3.7	1.3	Cn1cc(-c2cc(S(C)(=O)=O)ccc2Oc2cccc(NCc3ccc(C#N)cc3)c2)c2cc[nH]c2c1=O [Example 61, 4-[({3-[2-(6-methyl-7-oxo-6,7-dihydro-1H-pyrrolo[2,3-c]pyridin-4-yl)-4-(methylsulfonyl)phenoxy]phenyl}amino)methyl]benzonitrile]
5.22	120	Cn1cc(-c2cc(S(C)(=O)=O)ccc2Oc2ccc(F)cc2F)c2cc(CN3CCN(C4CC4)CC3)[nH]c2c1=O [Example 115, 2-[(4-cyclopropylpiperazin-1-yl)methyl]-4-[2-(2,4-difluorophenoxy)-5-(methylsulfonyl)phenyl]-6-methyl-1,6-dihydro-7H-pyrrolo[2,3-c]pyridin-7-one]
32	6.9	CCS(=O)(=O)Nc1cc(-c2cn(C)c(=O)c3[nH]ccc23)c(Oc2ccc(F)cc2F)cc1CNC1CCCC1 [Example 7, N-{2-[(cyclopentylamino)methyl]-4-(2,4-difluorophenoxy)-5-(6-methyl-7-oxo-6,7-dihydro-1H-pyrrolo[2,3-c]pyridin-4-yl)phenyl}ethanesulfonamide]

Source: US9957263B2, “Bromodomain inhibitors” (AbbVie Inc., priority 2013, dated 2018)
